The NIST ThermoML archive (doi:10.1016/j.fluid.2007.09.002)
Numbers after ± are expanded uncertainties.

Tests used:
[1] = Liquid, Closed cell (Static) method
[2] = excess molar enthalpy (molar enthalpy of mixing); xn = mol fraction of the nth substance listed; details: 298.15 K, 101.3 kPa, Liquid, Flow calorimetry

CC#CCCC [2-hexyne]
[1]
Details	vapor or sublimation pressure [kPa]
263.15 K	1.372 ± 0.056
273.15 K	2.56 ± 0.1
283.15 K	4.532 ± 0.18
293.15 K	7.66 ± 0.31
298.15 K	9.804 ± 0.39
303.15 K	12.43 ± 0.5
313.15 K	19.45 ± 0.78
323.15 K	29.46 ± 1.2
333.15 K	43.35 ± 1.7
343.15 K	62.15 ± 2.5

CC#CCCC [2-hexyne] + CCCCOC
[2]
Details	excess molar enthalpy [kcal/mol]
x1 = 0.1468	-0.0143 ± 0.00239
x1 = 0.3058	-0.0287 ± 0.00239
x1 = 0.4949	-0.039 ± 0.00239
x1 = 0.637	-0.0382 ± 0.00239
x1 = 0.7489	-0.0335 ± 0.00239
x1 = 0.8444	-0.0191 ± 0.00239

CCC#CCC [3-hexyne]
[1]
Details	vapor or sublimation pressure [kPa]
263.15 K	1.613 ± 0.065
273.15 K	3.001 ± 0.12
283.15 K	5.293 ± 0.21
293.15 K	8.909 ± 0.36
298.15 K	11.38 ± 0.46
303.15 K	14.39 ± 0.58
313.15 K	22.4 ± 0.9
323.15 K	33.77 ± 1.4
333.15 K	49.44 ± 2
343.15 K	70.52 ± 2.8

CCC#CCC [3-hexyne] + CCCCOCCCC
[2]
Details	excess molar enthalpy [kcal/mol]
x1 = 0.1599	0.00956 ± 0.00239
x1 = 0.2756	0.0143 ± 0.00239
x1 = 0.3989	0.0174 ± 0.00239
x1 = 0.496	0.0184 ± 0.00239
x1 = 0.5781	0.0182 ± 0.00239
x1 = 0.6579	0.0163 ± 0.00239
x1 = 0.7475	0.0136 ± 0.00239
x1 = 0.8783	0.00837 ± 0.00239

CCCCOC [butyl methyl ether]
[1]
Details	vapor or sublimation pressure [kPa]
263.15 K	3.054 ± 0.062
273.15 K	5.436 ± 0.11
283.15 K	9.207 ± 0.19
293.15 K	14.93 ± 0.3
298.15 K	18.73 ± 0.38
303.15 K	23.3 ± 0.47
313.15 K	35.15 ± 0.71
323.15 K	51.45 ± 1
333.15 K	73.31 ± 1.5
343.15 K	101.96 ± 2
